Results from patent US20240239759A1, “ISOXAZOLINE COMPOSITIONS AND THEIR USE AS ANTIPARASITICS” (Intervet Inc., priority 2007, published 2024).
Values joined by “and” are separate entries in the source; they are usually repeats but may differ in a detail not shown here. Identical values can stand only once.

Tests used:
[1] = tested on: cat fleas (Ctenocephalides felis); assay: Adult fleas fed on artificial membranes with spiked blood (Example 1); settings: 48 hr continuous feeding
Description: Adult fleas (20-30) were fed on artificial membranes with blood spiked with Compound 10-1, Compound 11-1, or a positive control (fipronil) at a concentration of 100, 10, or 1 ppm. Flea efficacy was assessed after 48 hr of continuous feeding by comparing the number of killed and damaged fleas with the number of fed fleas. Flea efficacy was 100% for Compound 10-1, Compound 11-1, and fipronil at 100, 10, and 1 ppm.

adult fleas (C. felis) = assay: Efficacy against fleas on mice (Example 2A); format: in vivo, Ctenocephalides felis
Description: (§1) Mice were divided into groups of three, and treated topically with 100 ppm body weight, orally with 10 mg/kg bodyweight, or subcutaneously with 10 mg/kg bodyweight of Compound 11-1, fipronil (positive control), or nothing (negative control). These mice were sedated and infested with adult fleas (C. felis) 1, 3, 6, and 24 hr after treatment. Fleas were recovered from the mice after approximately 30 minutes of feeding. The assessment of flea inhibition (% of dead and damaged fleas) was conducted 1 and 24 hr after each infestation.

M. musculinus = assay: Efficacy against mites on mice (Example 2B); format: in vivo, Myocoptes musculinus; parameters: key: “+”=low infestation rate; “++”=medium infestation rate; “+++”=high infestation rate; settings: repeated 7 days later
Description: The mice were divided into groups of three, and treated topically with 100 ppm body weight, orally with 10 mg/kg body weight, or subcutaneously with 10 mg/kg body weight of Compound 11-1, fipronil (positive control), or nothing (negative control). This treatment was then repeated 7 days later. The infestation rate per mouse (“+”=low infestation rate, “++”=medium infestation rate, “+++”=high infestation rate) was assessed repeatedly on days 1, 6, 9, 13, and 23. Efficacy was defined as the inhibition of the mite infestation rate on treated mice relative to the negative control group.

[2] = tested on: juvenile soft ticks (O. moubata); assay: Efficacy against soft (Argaside) ticks on Guinea pigs (Example 2C); format: in vivo, Ornithodoros moubata; settings: Guinea pig
Description: (§2) Six Guinea pigs were treated orally, subcutaneously, or intraperitoneally with 10 mg/kg bodyweight of Compound 11-1 or fipronil (positive control). The Guinea pigs were locally co-infested with juvenile soft ticks (O. moubata) and bed bugs (C. lectularius) once before the treatment, and at different time points after treatment between days 2 and 50. Ten engorged ticks/bed bugs were collected to assess the percentage of killed individuals per species 24 hr after each infestation.
(§3) For Guinea pigs treated with Compound 11-1, the ticks and bed bugs died within 1 to 5 hr following infestation up to Day 29, and within 8 to 24 hr after day 29. For Guinea pigs treated with fipronil, ticks and bed bugs died within 1 to 7 hr after infestation up to Day 29, and within 8 to 24 hr after day 29.

[3] = tested on: bed bugs (C. lectularius); assay: Efficacy against bed bugs on Guinea pigs (Example 2C); format: in vivo, Cimex lectularius; settings: Guinea pig
Description: as §2, §3

[4] = tested on: brown dog ticks, R. sanguineus (nymphs); assay: Efficacy against hard (Ixodide) ticks on Guinea pigs (Example 2D); format: in vivo, Rhipicephalus sanguineus; settings: all treated groups of Study 1 (100 ppm dip, 10 mg/kg oral, 10 mg/kg subcutaneous) and Study 2 (25 ppm dip, 2.5 mg/kg oral, 2.5 mg/kg subcutaneous), Day 4 to Day 8
Description: (§4) Guinea pigs were divided into groups of three. Each group was subjected to one of the following treatments with either Compound 11-1, fipronil (positive control), or neither (negative control):
(§5) • 1. 100 ppm body weight topical administration by animal dip • 2. 10 mg/kg body weight oral administration • 3. 10 mg/kg body weight subcutaneous administration • 4. No treatment (negative control)
(§6) • 1. 25 ppm body weight topical administration by animal dip • 2. 2.5 mg/kg body weight oral administration • 3. 2.5 mg/kg body weight subcutaneous administration • 4. No treatment (negative control) One day before the treatment, all the Guinea pigs were infested with 100 vital juvenile (“nymph”) hard ticks (brown dog ticks, R. sanguineus). Engorged, detached nymphs were counted (eN) from Day 4 to Day 8 to calculate the efficacy of the treatments according to following formula: […]
In addition, collected ticks were assessed for molting into the next stage.

[5] = Side effects in mice, flea study (Example 2A); format: in vivo; settings: topical 100 ppm, oral or subcutaneous 10 mg/kg
Description: as §1

[6] = Side effects in Guinea pigs, soft tick and bed bug study (Example 2C); format: in vivo
Description: as §2

[7] = Side effects in Guinea pigs, hard tick studies (Example 2D); format: in vivo; settings: Guinea pigs; either study (topical dip, oral, subcutaneous)
Description: as §4, §5, §6
In the first study, 32 engorged R. sanguineus nymphs were collected from animals of the untreated negative control group. And in the second study, 75 engorged R. sanguineus nymphs were collected from animals of the untreated negative control group. […] Thus, the inhibition of engorged nymphs for both Compound 11-1 and fipronil was 100%.

## Cc1cc(C2=NOC(c3cc(Cl)cc(Cl)c3)(C(F)(F)F)C2)ccc1C(=O)NCC(=O)NCC(F)(F)F (racemic) [Compound 11-1, 4-[5-(3,5-dichlorophenyl)-5-trifluoromethyl-4,5-dihydroisoxazol-3-yl]-2-methyl-N-[(2,2,2-trifluoro-ethylcarbamoyl)-methyl]-benzamide]
[1]; blood spiked at 1 ppm
  Flea efficacy: 100%
[1]; blood spiked at 10 ppm
  Flea efficacy: 100%
[1]; blood spiked at 100 ppm
  Flea efficacy: 100%
Adult fleas (C. felis); oral 10 mg/kg, infested 1 hr after treatment, assessed 1 hr after infestation
  Flea inhibition (% of dead and damaged fleas): 43.3%
Adult fleas (C. felis); oral 10 mg/kg, infested 1 hr after treatment, assessed 24 hr after infestation
  Flea inhibition (% of dead and damaged fleas): 67.7%
Adult fleas (C. felis); oral 10 mg/kg, infested 3 hr after treatment, assessed 1 hr after infestation
  Flea inhibition (% of dead and damaged fleas): 44.3%
Adult fleas (C. felis); oral 10 mg/kg, infested 3 hr after treatment, assessed 24 hr after infestation
  Flea inhibition (% of dead and damaged fleas): 48.7%
Adult fleas (C. felis); oral 10 mg/kg, infested 6 hr after treatment, assessed 1 hr after infestation
  Flea inhibition (% of dead and damaged fleas): 17.7%
Adult fleas (C. felis); oral 10 mg/kg, infested 6 hr after treatment, assessed 24 hr after infestation
  Flea inhibition (% of dead and damaged fleas): 26.7%
Adult fleas (C. felis); oral 10 mg/kg, infested 24 hr after treatment, assessed 1 hr after infestation
  Flea inhibition (% of dead and damaged fleas): 37.7%
Adult fleas (C. felis); oral 10 mg/kg, infested 24 hr after treatment, assessed 24 hr after infestation
  Flea inhibition (% of dead and damaged fleas): 82.0%
Adult fleas (C. felis); subcutaneous 10 mg/kg, infested 1 hr after treatment, assessed 1 hr after infestation
  Flea inhibition (% of dead and damaged fleas): 7.7%
Adult fleas (C. felis); subcutaneous 10 mg/kg, infested 1 hr after treatment, assessed 24 hr after infestation
  Flea inhibition (% of dead and damaged fleas): 40.0%
Adult fleas (C. felis); subcutaneous 10 mg/kg, infested 3 hr after treatment, assessed 1 hr after infestation
  Flea inhibition (% of dead and damaged fleas): 31.0%
Adult fleas (C. felis); subcutaneous 10 mg/kg, infested 3 hr after treatment, assessed 24 hr after infestation
  Flea inhibition (% of dead and damaged fleas): 42.3%
Adult fleas (C. felis); subcutaneous 10 mg/kg, infested 6 hr after treatment, assessed 1 hr after infestation
  Flea inhibition (% of dead and damaged fleas): 21.0%
Adult fleas (C. felis); subcutaneous 10 mg/kg, infested 6 hr after treatment, assessed 24 hr after infestation
  Flea inhibition (% of dead and damaged fleas): 36.7%
Adult fleas (C. felis); subcutaneous 10 mg/kg, infested 24 hr after treatment, assessed 1 hr after infestation
  Flea inhibition (% of dead and damaged fleas): 100%
Adult fleas (C. felis); subcutaneous 10 mg/kg, infested 24 hr after treatment, assessed 24 hr after infestation
  Flea inhibition (% of dead and damaged fleas): 100%
Adult fleas (C. felis); topical 100 ppm body weight, infested 1 hr after treatment, assessed 1 hr after infestation
  Flea inhibition (% of dead and damaged fleas): 0%
Adult fleas (C. felis); topical 100 ppm body weight, infested 1 hr after treatment, assessed 24 hr after infestation
  Flea inhibition (% of dead and damaged fleas): 97.7%
Adult fleas (C. felis); topical 100 ppm body weight, infested 3 hr after treatment, assessed 1 hr after infestation
  Flea inhibition (% of dead and damaged fleas): 0%
Adult fleas (C. felis); topical 100 ppm body weight, infested 3 hr after treatment, assessed 24 hr after infestation
  Flea inhibition (% of dead and damaged fleas): 99.0%
Adult fleas (C. felis); topical 100 ppm body weight, infested 6 hr after treatment, assessed 1 hr after infestation
  Flea inhibition (% of dead and damaged fleas): 0%
Adult fleas (C. felis); topical 100 ppm body weight, infested 6 hr after treatment, assessed 24 hr after infestation
  Flea inhibition (% of dead and damaged fleas): 81.0%
Adult fleas (C. felis); topical 100 ppm body weight, infested 24 hr after treatment, assessed 1 hr after infestation
  Flea inhibition (% of dead and damaged fleas): 2%
Adult fleas (C. felis); topical 100 ppm body weight, infested 24 hr after treatment, assessed 24 hr after infestation
  Flea inhibition (% of dead and damaged fleas): 93.3%
M. musculinus; oral 10 mg/kg, Day 1
  Mite infestation rate per mouse: + to ++
M. musculinus; oral 10 mg/kg, Day 6
  Mite infestation rate per mouse: ++
M. musculinus; oral 10 mg/kg, Day 9, 10 mg/kg
  Mite infestation rate per mouse: 2 mice: none and 1 mouse: +
M. musculinus; oral 10 mg/kg, Day 13
  Mite infestation rate per mouse: none
M. musculinus; oral 10 mg/kg, Day 23
  Mite infestation rate per mouse: none
M. musculinus; subcutaneous 10 mg/kg, Day 1
  Mite infestation rate per mouse: + to ++
M. musculinus; subcutaneous 10 mg/kg, Day 6
  Mite infestation rate per mouse: ++
M. musculinus; subcutaneous 10 mg/kg, Day 9
  Mite infestation rate per mouse: none
M. musculinus; subcutaneous 10 mg/kg, Day 13
  Mite infestation rate per mouse: none
M. musculinus; subcutaneous 10 mg/kg, Day 23
  Mite infestation rate per mouse: none
M. musculinus; topical 100 ppm body weight, Day 1
  Mite infestation rate per mouse: +
M. musculinus; topical 100 ppm body weight, Day 6
  Mite infestation rate per mouse: 2 mice: none and 1 mouse: +
M. musculinus; topical 100 ppm body weight, Day 9
  Mite infestation rate per mouse: none
M. musculinus; topical 100 ppm body weight, Day 13
  Mite infestation rate per mouse: none
M. musculinus; topical 100 ppm body weight, Day 23
  Mite infestation rate per mouse: none
[2]; intraperitoneal 10 mg/kg, after Day 31
  Efficacy against soft ticks (killed 24 hr after infestation): No efficacy was detected after Day 31.
[2]; intraperitoneal 10 mg/kg, up to Day 31
  Efficacy against soft ticks (killed 24 hr after infestation): 100% efficacy was observed up to Day 31.
[2]; oral 10 mg/kg, up to Day 31
  Efficacy against soft ticks (killed 24 hr after infestation): 100% efficacy was observed up to Day 31.
[2]; subcutaneous 10 mg/kg, after Day 33
  Efficacy against soft ticks (killed 24 hr after infestation): No efficacy was detected after Day 33.
[2]; subcutaneous 10 mg/kg, up to Day 31
  Efficacy against soft ticks (killed 24 hr after infestation): 100% efficacy was observed up to Day 31.
[2]; subcutaneous 10 mg/kg, up to Day 33
  Efficacy against soft ticks (killed 24 hr after infestation): 70% efficacy was observed up to Day 33.
[3]; intraperitoneal 10 mg/kg, after Day 35
  Efficacy against bed bugs (killed 24 hr after infestation): 35. No efficacy was detected after Day 35.
[3]; intraperitoneal 10 mg/kg, up to Day 33
  Efficacy against bed bugs (killed 24 hr after infestation): 100% efficacy was observed up to Day 33.
[3]; oral 10 mg/kg, up to Day 31
  Efficacy against bed bugs (killed 24 hr after infestation): 100% efficacy was observed up to Day 31.
[3]; subcutaneous 10 mg/kg, after Day 42
  Efficacy against bed bugs (killed 24 hr after infestation): 42. No efficacy was detected after Day 42.
[3]; subcutaneous 10 mg/kg, up to Day 35
  Efficacy against bed bugs (killed 24 hr after infestation): 100% efficacy was observed up to Day 35.
[3]; subcutaneous 10 mg/kg, up to Day 40
  Efficacy against bed bugs (killed 24 hr after infestation): 90% efficacy was observed up to Day 40.
[4]
  Engorged R. sanguineus nymphs collected: no nymphs were collected
  Inhibition of engorged nymphs: 100%
[5]
  Side effects: No side effects were observed
[6]; Guinea pig, oral 10 mg/kg, without clinical symptoms
  Death of the orally treated Guinea pig (Animal No. 1) after Day 31: not considered to be treatment-related
[6]; Guinea pigs, oral, subcutaneous or intraperitoneal 10 mg/kg
  Side effects: No side effects were observed
[7]
  Side effects: No side effects were observed
